From patent US20230303540A1 (Merck Sharp & Dohme LLC, priority 2020, published 2023)

Molecular target: GST-tagged truncated human mutant G2019S LRRK2 (Homo sapiens, UniProt Q5S007, G2019S)
Assay: LRRK2 G2019S Km ATP LanthaScreen assay
Assay type: biochemical
Settings: 134 μM ATP (Km ATP), LRRKtide substrate, mean IC50 values; read-out: LRRK2 pIC50 (converted)
Procedure, shortened: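 Compound preincubated 15 min at room temperature with enzyme in pH 8.5 Tris buffer (10 mM MgCl2). Then a 90 min reaction at ambient temperature with 134 μM (Km) ATP and fluorescein-LRRKtide. EDTA stop, Tb anti-phospho antibody TR-FRET; […]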

| SMILES | IC50 |
| --- | --- |
| CCn1ncc(Nc2ncc3ccc(N4C(=O)CCC4C)cc3n2)c1C (single isomer, unassigned) [Ex-7.17, (R) or (S) 1-{2-[(1-ethyl-5-methyl-1H-pyrazol-4-yl)amino]quinazolin-7-yl}-5-methylpyrrolidin-2-one] | 54.9 nM |
| CCn1ncc(Nc2ncc3ccc(N4C(=O)CCC4C)cc3n2)c1C (single isomer, unassigned) [Ex-7.18, (R) or (S) 1-{2-[(1-ethyl-5-methyl-1H-pyrazol-4-yl)amino]quinazolin-7-yl}-5-methylpyrrolidin-2-one] | 8.73 nM |
| CCc1cc2cnc(Nc3cnn(C4CC4(F)F)c3Cl)nc2cc1N1CCN(C2(C)COCC2O)CC1 (single isomer, unassigned) [Ex-8.3, (3S,4S) or (3R,4R) 4-(4-(2-((5-chloro-1-(2,2-(R) or (S)difluorocyclopropyl)-1H-pyrazol-4-yl)amino)-6-ethylquinazolin-7-yl)piperazin-1-yl)-4-methyltetrahydrofuran-3-ol] | 0.745 nM |
| Cc1nn(C2CC3(C2)CN(C2COC2)C3)cc1Nc1ncc2ccc(N3C(=O)C4CCC3C4)cc2n1 (single isomer, unassigned) [Ex-8.5, (1R,4S) or (1S,4R)-2-(2-((3-methyl-1-(2-(oxetan-3-yl)-2-azaspiro[3.3]heptan-6-yl)-1H-pyrazol-4-yl)amino)quinazolin-7-yl)-2-azabicyclo[2.2.1]heptan-3-one] | 0.625 nM |
| Cc1nn(C2CC3(C2)CN(C2COC2)C3)cc1Nc1ncc2ccc(N3C(=O)C4CCC3C4)cc2n1 (single isomer, unassigned) [Ex-8.6, (1R,4S) or (1S,4R)-2-[2-({3-methyl-1-[2-(oxetan-3-yl)-2-azaspiro[3.3]heptan-6-yl]-1H-pyrazol-4-yl}amino)quinazolin-7-yl]-2-azabicyclo[2.2.1]heptan-3-one] | 4.86 nM |
| Cc1c(Nc2ncc3cc(Cl)c(N4CCC(C)(O)CC4C)cc3n2)cnn1C1CC1 (single isomer, unassigned) [Ex-9.1, (2R,4S or 2S,4R, or 2S,4S, or 2R,4R)-1-(6-Chloro-2-((1-cyclopropyl-5-methyl-1H-pyrazol-4-yl)amino)quinazolin-7-yl)-2,4-dimethylpiperidin-4-ol] | 4.68 nM |
| Cc1c(Nc2ncc3cc(Cl)c(N4CCC(C)(O)CC4C)cc3n2)cnn1C1CC1 (single isomer, unassigned) [Ex-9.2, (2R,4S or 2S,4R, or 2S,4S, or 2R,4R)-1-(6-Chloro-2-((1-cyclopropyl-5-methyl-1H-pyrazol-4-yl)amino)quinazolin-7-yl)-2,4-dimethylpiperidin-4-ol] | 1.06 nM |
| Cc1c(Nc2ncc3cc(Cl)c(N4CCN(C5COC(C)(C)C5)CC4)cc3n2)cnn1C1CC1 (single isomer, unassigned) [Ex-12.1] | 2.93 nM |
| Cc1c(Nc2ncc3cc(Cl)c(N4CCN(C5(C)COC(C)(C)C5)CC4)cc3n2)cnn1C1CC1 (single isomer, unassigned) [Ex-12.2] | 0.721 nM |
| Cc1c(Nc2ncc3cc(Cl)c(N4CCN(C5(C)COC(C)(C)C5)CC4)cc3n2)cnn1C1CC1 (single isomer, unassigned) [Ex-12.3] | 186 nM |
| Cc1c(Nc2ncc3cc(Cl)c(N4CCN(C5COC(C)(C)C5)CC4)cc3n2)cnn1C1CC1 (single isomer, unassigned) [Ex-12.5, 6-chloro-N-(1-cyclopropyl-5-methyl-1H-pyrazol-4-yl)-7-(4-(5,5-dimethyltetrahydrofuran-3-yl)piperazin-1-yl)quinazolin-2-amine] | 0.56 nM |
| CC1CN(c2cc3nc(Nc4cnn(C5CC5)c4Cl)ncc3cc2Cl)CCN1C1COCC1O (single isomer, unassigned) [Ex-12.6, (3S,4S) or (3R, 4R)-4-((R) or (S)-4-(4-(6-chloro-2-((5-chloro-1-cyclopropyl-1H-pyrazol-4-yl)amino)quinazolin-7-yl)-2-methylpiperazin-1-yl)tetrahydrofuran-3-ol] | 13.6 nM |
| CC1CN(c2cc3nc(Nc4cnn(C5CC5)c4Cl)ncc3cc2Cl)CCN1C1COCC1O (single isomer, unassigned) [Ex-12.7, (3S,4S) or (3R, 4R)-4-((R) or (S)-4-(4-(6-chloro-2-((5-chloro-1-cyclopropyl-1H-pyrazol-4-yl)amino)quinazolin-7-yl)-2-methylpiperazin-1-yl)tetrahydrofuran-3-ol] | 4.36 nM |
| CC1CN(C2COCC2O)CCN1c1cc2nc(Nc3cnn(C4CC4)c3Cl)ncc2cc1Cl (single isomer, unassigned) [Ex-12.8, (3S,4S) or (3R, 4R)-4-((R) or (S)-4-(6-chloro-2-((5-chloro-1-cyclopropyl-1H-pyrazol-4-yl)amino)quinazolin-7-yl)-3-methylpiperazin-1-yl)tetrahydrofuran-3-ol] | 0.088 nM |
| CC1CN(C2COCC2O)CCN1c1cc2nc(Nc3cnn(C4CC4)c3Cl)ncc2cc1Cl (single isomer, unassigned) [Ex-12.9, (3S,4S) or (3R, 4R)-4-((R) or (S)-4-(6-chloro-2-((5-chloro-1-cyclopropyl-1H-pyrazol-4-yl)amino)quinazolin-7-yl)-3-methylpiperazin-1-yl)tetrahydrofuran-3-ol] | 8.64 nM |
| O[C@@H]1COC[C@@H]1N1CCN(c2cc3nc(Nc4cnn(C56CC(C5)C6)c4Cl)ncc3cc2Cl)CC1 (single isomer, unassigned) [Ex-13.2, (3S,4S) or (3R,4R)-4-(4-(2-((1-(bicyclo[1.1.1]pentan-1-yl)-5-chloro-1H-pyrazol-4-yl)amino)-6-chloroquinazolin-7-yl)piperazin-1-yl)tetrahydrofuran-3-ol] | 3.81 nM |
| Cc1cc2cnc(Nc3cnn(C45CC(C4)C5)c3Cl)nc2cc1N1CCN(C2COCC2O)CC1 (single isomer, unassigned) [Ex-13.3, (3S,4S) or (3R, 4R)-4-(4-(2-((1-(bicyclo[1.1.1]pentan-1-yl)-5-chloro-1H-pyrazol-4-yl)amino)-6-methylquinazolin-7-yl)piperazin-1-yl)tetrahydrofuran-3-ol] | 6.98 nM |
| Cc1cc2cnc(Nc3cnn(C45CC(C4)C5)c3Cl)nc2cc1N1CCN(C2(C)COCC2O)CC1 (single isomer, unassigned) [Ex-13.4, (3S,4S) or (3R, 4R)-4-(4-(2-((1-(bicyclo[1.1.1]pentan-1-yl)-5-chloro-1H-pyrazol-4-yl)amino)-6-methylquinazolin-7-yl)piperazin-1-yl)-4-methyltetrahydrofuran-3-ol] | 0.267 nM |
| Cc1cc2cnc(Nc3cnn(C45CC(C4)C5)c3Cl)nc2cc1N1CCN(C2(C)COCC2O)CC1 (single isomer, unassigned) [Ex-13.5, (3S,4S) or (3R, 4R)-4-(4-(2-((1-(bicyclo[1.1.1]pentan-1-yl)-5-chloro-1H-pyrazol-4-yl)amino)-6-methylquinazolin-7-yl)piperazin-1-yl)-4-methyltetrahydrofuran-3-ol] | 9.89 nM |
| Cc1c(Nc2ncc3cc(Cl)c(N4CCN(C5COCC5O)CC4)cc3n2)cnn1C(F)F (single isomer, unassigned) [Ex-13.6, (3S,4S) or (3R,4R)-4-(4-(6-chloro-2-((1-(difluoromethyl)-5-methyl-1H-pyrazol-4-yl)amino)quinazolin-7-yl)piperazin-1-yl)tetrahydrofuran-3-ol] | 0.668 nM |
| Cc1c(Nc2ncc3cc(Cl)c(N4CCN(C5COCC5O)CC4)cc3n2)cnn1C(F)F (single isomer, unassigned) [Ex-13.7, (3S,4S) or (3R, 4R)-4-(4-(6-chloro-2-((1-(difluoromethyl)-5-methyl-1H-pyrazol-4-yl)amino)quinazolin-7-yl)piperazin-1-yl)tetrahydrofuran-3-ol] | 31.6 nM |
| CC1(N2CCN(c3cc4nc(Nc5cnn(C67CC(F)(C6)C7)c5Cl)ncc4cc3Cl)CC2)COCC1O (single isomer, unassigned) [Ex-13.8, (3S,4S) or (3R,4R)4-(4-(6-chloro-2-((5-chloro-1-(3-fluorobicyclo[1.1.1]pentan-1-yl)-1H-pyrazol-4-yl)amino)quinazolin-7-yl)piperazin-1-yl)-4-methyltetrahydrofuran-3-ol] | 1.69 nM |
| Cc1cc(Nc2ncc3cc(Cl)c(N4CCN(C5(C)COCC5O)[C@@H](C)C4)cc3n2)n(C2CC2)n1 (single isomer, unassigned) [Ex-13.9, 4-((S or R) (3S,4S) or (3R,4R)-4-(6-chloro-2-((1-cyclopropyl-3-methyl-1H-pyrazol-5-yl)amino)quinazolin-7-yl)-2-methylpiperazin-1-yl)-4-methyltetrahydrofuran-3-ol] | 97.5 nM |
| CCn1ncc(Nc2ncc3ccc(N4C(=O)[C@@H]5CC[C@H]4C5)nc3n2)c1C (single isomer, unassigned) [Ex-15.3, (1S,4R) or (1R,4S)-2-{2-[(1-ethyl-5-methyl-1H-pyrazol-4-yl)amino]pyrido[2,3-d]pyrimidin-7-yl}-2-azabicyclo[2.2.1]heptan-3-one] | 4.43 nM |
| CCn1ncc(Nc2ncc3ccc(N4C(=O)[C@H]5CC[C@@H]4C5)nc3n2)c1C (single isomer, unassigned) [Ex-15.4, (1S,4R) or (1R,4S)-2-{2-[(1-ethyl-5-methyl-1H-pyrazol-4-yl)amino]pyrido[2,3-d]pyrimidin-7-yl}-2-azabicyclo[2.2.1]heptan-3-one] | 12.5 nM |
| O[C@@H]1COC[C@@H]1N1CCN(c2nc3nc(Nc4cnn(C5CC5)c4Cl)ncc3cc2Cl)CC1 (single isomer, unassigned) [Ex-16.1, (3S,4S) or (3R, 4R)-4-(4-(6-Chloro-2-((5-chloro-1-cyclopropyl-1H-pyrazol-4-yl)amino)pyrido[2,3-d]pyrimidin-7-yl)piperazin-1-yl)tetrahydrofuran-3-ol] | 15.6 nM |
| O[C@@H]1COC[C@@H]1N1CCN(c2nc3nc(Nc4cnn(C5CC5)c4Cl)ncc3cc2Cl)CC1 (single isomer, unassigned) [Ex-16.2, (3S,4S) or (3R, 4R)-4-(4-(6-Chloro-2-((5-chloro-1-cyclopropyl-1H-pyrazol-4-yl)amino)pyrido[2,3-d]pyrimidin-7-yl)piperazin-1-yl)tetrahydrofuran-3-ol] | 126 nM |
